Drawing on EP0942911B1, “BENZOPYRANOPYRROLE AND BENZOPYRANOPYRIDINE ALPHA-1 ADRENERGIC COMPOUNDS” (Abbott Laboratories, priority 1996, dated 1998), this text covers Ki for 7 molecules.

Experiment in all cases: biochemical
The target in assay [1] is T1, α-1A adrenoreceptor (rat submaxillary gland) (Rattus norvegicus, UniProt P43140).
T1 sequence (P43140 1-466): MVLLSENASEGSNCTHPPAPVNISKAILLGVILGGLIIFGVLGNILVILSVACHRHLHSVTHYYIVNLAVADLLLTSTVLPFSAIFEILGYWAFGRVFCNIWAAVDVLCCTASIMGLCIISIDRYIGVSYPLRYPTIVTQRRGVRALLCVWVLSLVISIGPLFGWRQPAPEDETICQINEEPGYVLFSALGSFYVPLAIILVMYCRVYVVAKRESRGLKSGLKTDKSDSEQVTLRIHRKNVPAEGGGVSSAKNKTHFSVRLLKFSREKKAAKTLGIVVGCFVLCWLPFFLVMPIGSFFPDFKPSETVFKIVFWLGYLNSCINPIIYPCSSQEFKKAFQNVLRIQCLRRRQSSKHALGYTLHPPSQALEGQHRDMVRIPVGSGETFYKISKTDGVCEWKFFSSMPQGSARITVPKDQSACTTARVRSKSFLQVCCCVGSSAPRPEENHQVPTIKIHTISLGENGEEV
It counts as binding. Conditions: read-out: Radioligand Binding (Ki, nM) 1A (Rat). The procedure:
Additionally, binding affinity against the pharrnacologically defined α-1A adrenoreceptor (rat submaxillary gland) was measured.
(§1) On the fifth day of culture, growth medium was removed from cells grown in roller bottles, and the cells were washed twice with PBS (Sigma, 120 mM NaCl, 2.7 mM KCl, 10 mM Na2HPO4-NaH2PO4, pH = 7.4). Cells were detached from the roller bottles by incubating for 15 minutes at 37 °C in a Tris-EDTA solution (10 mM Tris, 100 mM NaCl, 1 mM EDTA, pH = 7.4). The cell suspension from each roller bottle was decanted into tared centrifuge tubes and kept on ice. An aliquot of each cell suspension was generally taken for cell counting. Cells were centrifuged at 3000 X G for 5 min at 2-4 °C, washed with PBS and recentrifuged. The supernatant was decanted and the pellet weighed to determine the wet weight of cells. Cells were washed a final time in 40 vol 5 mM Tris-HCl, 5 mM EDTA, pH = 7.7, and centrifuged at 40,000 X G for 10 minutes. Cells were homogenized in 10 mL of 50 mM Tris-HCl, 5 mM EDTA (pH = 7.4) and diluted to 40 mL/tube. Homogenates were centrifuged at 40,000 X G for 10 minutes. The supernatant was decanted and the pellets rehomogenized in 50 mM Tris-HCl (pH = 7.4) and centrifuged as before. The supernatant was decanted and the homogenate resuspended in 6.25 volumes (per gram wet weight) of 50 mM Tris-HCl and aliquots of the pooled homogenates frozen in liquid N2 and stored at -70 °C until the time of assay. Rat submaxillary glands were used for α-1A adrenoreceptors and were prepared essentially as described (Michel, A. D., Loury, D. N. and Whiting, R. L., Brit. J. Pharmacol. 98: 83-889 (1989)).
(§2) Receptor binding assays for α-1 adrenoreceptors were performed essentially as described by Greengrass and Bremner (Eur. J. Pharmacol. 55: 323-326 (1979)). […] Radioactivity was determined by standard liquid scintillation techniques. Data were analyzed as previously described (Hancock, A. A., Kyncl, J. J., Martin, Y. C. and DeBernardis, J. F., J. Receptor Res. 8: 23-46 (1988)).

The target in assay [2] is T2, α-1a adrenoreceptor (Bos taurus, UniProt P18130).
T2 sequence (P18130 1-466): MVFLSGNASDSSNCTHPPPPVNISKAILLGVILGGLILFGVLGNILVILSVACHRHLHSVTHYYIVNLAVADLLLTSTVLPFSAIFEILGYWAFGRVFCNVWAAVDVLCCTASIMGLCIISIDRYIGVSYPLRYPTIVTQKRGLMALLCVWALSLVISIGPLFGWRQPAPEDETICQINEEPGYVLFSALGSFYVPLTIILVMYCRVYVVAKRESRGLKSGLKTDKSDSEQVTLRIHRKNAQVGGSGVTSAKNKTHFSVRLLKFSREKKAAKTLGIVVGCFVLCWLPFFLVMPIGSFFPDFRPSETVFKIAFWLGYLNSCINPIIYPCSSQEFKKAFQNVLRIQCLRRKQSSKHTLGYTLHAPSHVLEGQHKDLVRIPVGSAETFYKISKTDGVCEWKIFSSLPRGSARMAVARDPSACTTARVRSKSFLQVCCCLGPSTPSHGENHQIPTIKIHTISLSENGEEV
It is filed as binding, bovine. Particulars: read-out: Radioligand Binding (Ki, nM) 1a (Bovine).
From the text: (§3) The cDNA clones encoding the α-1 adrenoreceptors (α-1a, α-1b, and α-1d) were obtained from TULCO (Triangle Universities Licensing Consortium, Research Triangle Park, NC) and inserted into the eukaryotic expression vector SnaB30. In this vector, expression of the adrenoreceptor gene is under the transcriptional control of an SV40 early promoter. Positive drug selection is provided by a neomycin-resistance gene. Mouse fibroblast cells (LTK) were transfected with the α1 expression plasmids and grown in Dulbecco's modified Eagle's medium (DMEM) containing 10% fetal calf serum and 30 µM G418. Stable G418-resistant parental lines were generated, with successful expression of adrenoreceptor protein monitored using radioligand binding techniques. Stable single cell clones derived from the parental lines were screened in adrenoreceptor binding assays to identify clones having high adrenoreceptor density. Roller bottle cultures of the cloned lines were used to provide cell membranes for subsequent adrenoreceptor binding characterization studies. A cell line containing the SnaB30 vector expressing the human erythropoietin gene served as a negative control.
(§4) For adrenoreceptor binding assays, large scale membrane preparations were utilized in which 6 million cells were seeded into small (450 cm^2) Corning tissue culture roller bottles. 200 mL of DMEM containing 10% fetal calf serum and 300 µM G418 were added to each roller bottle. A 95% air / 5% CO2 gas mixture (sterile) was injected into each roller bottle prior to sealing. The bottles were then incubated at 37 °C on a roller rack for 5 days. Cells were re-fed with fresh medium after 3 days in culture.
as §1, §2

Assay [3] addresses T3, α-1b adrenoreceptor (Mesocricetus auratus, UniProt P18841).
T3 sequence (P18841 1-515): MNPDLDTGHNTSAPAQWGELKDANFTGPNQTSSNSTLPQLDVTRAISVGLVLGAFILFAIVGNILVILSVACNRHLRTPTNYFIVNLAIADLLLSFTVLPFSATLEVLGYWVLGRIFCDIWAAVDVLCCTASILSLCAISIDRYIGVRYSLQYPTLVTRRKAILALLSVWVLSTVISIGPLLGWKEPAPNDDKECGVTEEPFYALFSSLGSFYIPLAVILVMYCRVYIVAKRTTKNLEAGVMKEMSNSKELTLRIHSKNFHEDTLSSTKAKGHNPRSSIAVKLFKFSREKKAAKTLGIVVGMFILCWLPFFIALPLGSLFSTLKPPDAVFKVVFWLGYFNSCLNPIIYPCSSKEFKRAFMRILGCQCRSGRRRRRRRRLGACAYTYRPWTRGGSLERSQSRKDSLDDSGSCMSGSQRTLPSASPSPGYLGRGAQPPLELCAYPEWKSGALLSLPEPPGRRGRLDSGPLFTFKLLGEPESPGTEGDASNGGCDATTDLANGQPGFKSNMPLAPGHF
It counts as binding, hamster. Conditions: read-out: Radioligand Binding (Ki, nM) 1b (Hamster).
From the text: as §3, §4, §1, §2

In assay [4] the target is T4, α-1d adrenoreceptor (Rattus norvegicus, UniProt P23944).
T4 sequence (P23944 1-561): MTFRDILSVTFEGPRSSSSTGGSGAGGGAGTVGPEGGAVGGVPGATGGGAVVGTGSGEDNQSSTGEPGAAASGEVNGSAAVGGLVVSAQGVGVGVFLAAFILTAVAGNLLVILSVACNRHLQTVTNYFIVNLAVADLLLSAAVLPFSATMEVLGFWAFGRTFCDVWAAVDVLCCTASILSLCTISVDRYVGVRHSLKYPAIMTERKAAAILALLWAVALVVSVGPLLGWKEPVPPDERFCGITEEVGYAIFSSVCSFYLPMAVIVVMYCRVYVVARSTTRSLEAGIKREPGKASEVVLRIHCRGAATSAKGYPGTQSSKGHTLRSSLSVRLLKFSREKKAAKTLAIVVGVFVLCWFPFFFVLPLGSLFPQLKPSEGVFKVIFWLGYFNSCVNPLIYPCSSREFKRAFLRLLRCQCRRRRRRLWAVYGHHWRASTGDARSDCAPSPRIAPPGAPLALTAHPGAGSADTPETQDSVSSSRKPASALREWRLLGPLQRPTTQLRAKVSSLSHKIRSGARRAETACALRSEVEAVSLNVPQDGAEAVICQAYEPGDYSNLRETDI
It counts as binding. Conditions: read-out: Radioligand Binding (Ki, nM) 1d (Rat).
From the text: as §3, §4, §1, §2

The mark [5] stands for this setting: [3H]-prazosin radioligand, rat submaxillary gland membranes.
The mark [6] stands for this setting: [3H]-prazosin radioligand, cloned receptor in LTK cell membranes.

Where a name gives a salt, the structure may show the parent alone. Read-outs that look alike come from different tables or passages of the source.

In the case of `COc1cc2[nH]c(=O)n(CCCCN3C[C@@H]4COc5cccc(OC)c5[C@@H]4C3)c(=O)c2cc1OC` (racemic) [Example 79, 3-[4-((±)-cis-9-Methoxy-1,2,3,3a,4,9b-hexahydro-[1]-benzopyrano[3,4-c]pyrrol-2-yl)butyl]-6,7-dimethoxy-quinazoline-2,4(1H,3H)-dione hydrochloride], the Ki – broadly, a dissociation constant, usually derived from enzyme kinetics or from competition with a known ligand – is 0.199 nM in assay [1], 0.174 nM in assay [2], 0.821 nM in assay [3] and 0.361 nM in assay [4].
In the case of `COc1cc2[nH]c(=O)n(CCCCN3C[C@@H]4COc5ccccc5[C@H]4C3)c(=O)c2cc1OC` (racemic) [Example 80, 3-[4-((±)-trans-1,2,3,3a,4,9b-hexahydro-[1]-benzopyrano[3,4-c]pyrrol-2-yl)butyl]-6,7-dimethoxy-quinazoline-2,4(1H,3H)-dione hydrochloride], the Ki in assay [1] was 0.442 nM; in assay [2], 0.17 nM; in assay [3], 2.5 nM; in assay [4], 0.765 nM.
In the case of `COc1cc2[nH]c(=O)n(CCCN3CC[C@H]4c5c(OC)cccc5OC[C@@H]4C3)c(=O)c2cc1OC` (racemic) [Example 83, 3-[3-(±)-trans-10-Methoxy-1,3,4,4a,5,10b-hexahydro-2H-[1]-benzopyrano[3,4-c]pyrido-3-yl)propyl]-6,7-dimethoxy-quinazoline-2,4(1H,3H)-dione hydrochloride], the Ki in assay [1] (setting [5]) is 0.383 nM; in assay [2] (setting [6]), 0.217 nM; in assay [3] (setting [6]), 3.07 nM; in assay [4] (setting [6]) it was 0.807 nM.
As to `COc1cc(O)cc2c1[C@@H]1CN(CCCCn3c(=O)[nH]c4c(sc5ncc(-c6ccccc6)nc54)c3=O)C[C@@H]1CO2` (relative stereo) [Example 104, 3-[4-(-cis-7-Hydroxy-9-methoxy-1,2,3,3a,4,9b-hexahydro-[1]-benzopyrano[3,4-c]pyrrol-2-yl)butyl]-8-phenyl-pyrazino[2',3':4,5]thieno[3,2-d]pyrimidine-2,4(1H,3H)-dione], the Ki in assay [1] (setting [5]) is 3.59 nM; in assay [2] (setting [6]), 0.427 nM; in assay [3] (setting [6]), 266 nM; in assay [4] (setting [6]), 5.2 nM.
Regarding `COc1cccc2c1[C@H]1CN(CCCCn3c(=O)[nH]c4c(sc5cccnc54)c3=O)C[C@@H]1CO2` [Example 4, 3-[4-((3aR,9bS)-trans-9-Methoxy-1,2,3,3a,4,9b-hexahydro-[1]-benzopyrano[3,4-c]pyrrol-2-yl)butyl]-pyrido[2',3':4,5]thieno[3,2-d]pyrimidine-2,4(1H,3H)-dione hydrochloride], the Ki was 0.097 nM in assay [1] (setting [5]), 0.049 nM in assay [2] (setting [6]), 0.867 nM in assay [3] (setting [6]) and 0.377 nM in assay [4] (setting [6]).
Regarding `COc1cccc2c1[C@H]1CN(CCCCn3c(=O)[nH]c4c(sc5c(Cl)ccnc54)c3=O)C[C@@H]1CO2` [Example 5, 3-[4-((3aR,9bS)-trans-9-Methoxy-1,2,3,3a,4,9b-hexahydro-[1]-benzopyrano[3,4-c]pyrrol-2-yl)butyl]-6-chloro-pyrido[2',3':4,5]thieno[3,2-d]pyrimidine-2,4(1H,3H)-dione dihydrochloride], the Ki in assay [1] (setting [5]) stood at 0.268 nM; in assay [2] (setting [6]), 0.086 nM; in assay [3] (setting [6]), 2.01 nM; in assay [4] (setting [6]), 0.638 nM.
For `COc1cccc2c1[C@H]1CN(CCCCn3c(=O)[nH]c4c(sc5ccc(Cl)nc54)c3=O)C[C@@H]1CO2` [Example 6, 3-[4-((3aR,9bS)-trans-9-Methoxy-1,2,3,3a,4,9b-hexahydro-[1]-benzopyrano[3,4-c]pyrrol-2-yl)butyl]-8-chloro-pyrido[2',3':4,5]thieno[3,2-d]pyrimidine-2,4(1H,3H)-dione dihydrochloride], the Ki stood at 0.409 nM in assay [1] (setting [5]), 0.173 nM in assay [2] (setting [6]), 2 nM in assay [3] (setting [6]) and 0.302 nM in assay [4] (setting [6]).
